Converted amounts (≈) assume the structure as drawn.
Key:
[1] = Stability Test 1: DI water solution plus aqueous MSA (70%), 50° C. oven, visual inspection for precipitate; type: physicochemical; conditions: 5.96 mg/mL in DI water plus aqueous MSA (70%)
Description: (§1) The stability of Compound 6 and Comparative 1 were determined using 2 different tests. In Test 1, solutions of each of Compound 6 and Comparative 1 dissolved in DI water (at a concentration of 5.96 mg/mL) were placed in separate vials. To each vial was added aqueous MSA (70%), the vials were then capped, placed in a 50° C. oven, and periodically visually inspected for the formation of precipitate. […] In Test 2, solutions of each of Compound 6 and Comparative 1 dissolved in D2O (at a concentration of 5.96 mg/mL) were placed in separate NMR tubes. A ^1H NMR (400 MHz) spectrum was obtained for each solution. Next, a solution of MSA (70%) dissolved in D2O was prepared and added to each NMR tube. A second ^1H NMR spectrum was immediately taken of each sample. Next, the NMR tubes were placed in a 50° C. oven, and periodically removed, analyzed by ^1H NMR, and returned to the oven.

[2] = Extended storage or long-term use in tin-silver electroplating bath (prior-art complexers); type: physicochemical
Source text: U.S. Pat. No. 6,998,036 discloses an acidic tin-silver alloy electroplating bath containing a certain sulfide or thiol-substituted ether compound.
U.S. Pat. No. 7,628,903 discloses conventional silver and silver-alloy electroplating baths containing certain sulfide compounds. This patent purports that these electroplating baths have good stability.

[3] = Solubility in 17% methane sulfonic acid (MSA)/DI water solution; conditions: aqueous with cosolvent or surfactant or cyclodextrin, thermodynamic from solid
Description: (§2) If a compound dissolved, then an additional 25 mg (in increments) of that compound was added until either no more would dissolve or 250 mg were dissolved in the 5 mL.

[4] = Stability in 17% MSA/water at 50° C., visual inspection for precipitation; conditions: for Stability (at 50° C.): 5 mg in 1 mL 17% MSA/water, time without precipitation; for Stability compared with Comparatives 1 and 2: 17% MSA/water
Description: The stability of various compounds was determined as follows: 5 mg of a compound was dissolved into 1 mL of 17% MSA/water solution and placed in a glass vial. Each vial was capped and placed in a dry heating bath at 50° C. for up to three weeks. Each sample was periodically removed from the bath and visually inspected for evidence of precipitation.

[5] = Stability Test 2: D2O solution plus MSA (70%), 50° C. oven, 1H NMR; type: physicochemical
Description: as §1

physchem = conditions: aqueous with cosolvent or surfactant or cyclodextrin, thermodynamic from solid
Description: as §2

SMILES | solubility [3] [mg/mL] | Stability (at 50° C.) [4] | further results
OCCSCCSCCO [Comparative 1, 2,2′-[1,2-ethanediylbis(thio)]bis-ethanol, reference compound] | 30 to 35 (≈ 165 to 192 mM) | <24 h | Formation of precipitate (Test 1, visual inspection) ([1]; after 60 hours): a copious amount of a white, flocculent precipitate; Behaviour upon extended storage or long term use in the electroplating bath [2]: polymerize; Change of 1H NMR spectrum (Test 2) ([5]; 5.96 mg/mL in D2O, immediately upon addition of the MSA solution): loss of the ^1H NMR spectrum
OCCSCSCCO [Comparative 2, 2,2′-(Methylenebis(sulfanediyl))diethanol, reference compound] | > 50 | <1 week | –
NC(=O)CCSCCSCCC(N)=O [Compound 1, 3,3′-(Ethane-1,2-diylbis(sulfanediyl))dipropanamide] | < 5 | – | –
O=C(O)CCSCCSCCC(=O)O [Compound 2, 3,3′-(Ethane-1,2-diylbis(sulfanediyl))dipropanoic acid] | < 5 | – | –
O=C(O)CSCCSCC(=O)O [Compound 3, 2,2′-(Ethane-1,2-diylbis(sulfanediyl))diacetic acid] | 30 (≈ 143 mM) | – | –
O=S(=O)(O)CCSCCSCCS(=O)(=O)O [Compound 4, 2,2′-(Ethane-1,2-diylbis(sulfanediyl))diethanesulfonic acid] | > 60 | – | –
O=S(=O)(O)CCCSCCSCCCS(=O)(=O)O [Compound 5, 3,3′-(ethane-1,2-diylbis(sulfanediyl))bis(propane-1-sulfonic acid)] | > 60 | – | –
OCCCSCCSCCCO [Compound 6, 3,3′-[1,2-Ethanediylbis(thio)]bis-1-propanol] | – | >3 weeks | Formation of precipitate (Test 1, visual inspection) ([1]; after 120 hours): no precipitate formation; Stability compared with Comparatives 1 and 2 [4]: significantly better; solubility (physchem): 5 mg/mL (≈ 23.8 mM); Change of 1H NMR spectrum (Test 2) ([5]; 5.96 mg/mL in D2O plus MSA (70%), 50° C., after 7 days): no change in the ^1H NMR spectrum
OCCCSCSCCCO [Compound 7, 3,3′-(Methylenebis(sulfanediyl))dipropanol] | > 50 | >3 weeks | Stability compared with Comparatives 1 and 2 [4]: significantly better
O=C(O)CSCSCC(=O)O [Compound 8, 2,2′-(Methylenebis(sulfanediyl))diacetic acid] | > 50 | >3 weeks | –
O=C(O)CC(SCSC(CC(=O)O)C(=O)O)C(=O)O (stereo not drawn) [Compound 9, 2,2′-(Methylenebis(sulfanediyl))disuccinic acid] | ~10 (≈ 32 mM) | >3 weeks | –
O=C(O)CSCCCSCC(=O)O [Compound 10, 2,2′-(Propane-1,3-diylbis(sulfanediyl))diacetic acid] | > 50 | >3 weeks | –
O=S(=O)(O)CCSCCCSCCS(=O)(=O)O [Compound 11, 2,2′-(Propane-1,3-diylbis(sulfanediyl))diethyl sulfonate] | > 50 | >3 weeks | –
O=S(=O)(O)CCCSCCCSCCCS(=O)(=O)O [Compound 12, 3,3′-(Propane-1,3-diylbis(sulfanediyl))dipropyl sulfonate] | > 50 | >3 weeks | –

— US8980077B2, “Plating bath and method” (Rohm and Haas Electronic Materials LLC, priority 2012, dated 2015)
